Results as given in patent publication US20150133426A1, “SUBSTITUTED PYRROLOPYRIMIDINES” (BAYER PHARMA AKTIENGESELLSCHAFT, priority 2012, published 2015).

Biological target: T1, human full-length MKNK1 (Homo sapiens, UniProt Q9BUB5, T385D)
T1 construct: purchased Carna Biosciences 02-145; host or cells: insect cells, baculovirus expression system
Assay: MKNK1 kinase high ATP assay (TR-FRET)
Type: biochemical
Conditions: high ATP (2 mM), 15 min preincubation with enzyme, GST-MKNK1 (T344D)
Protocol: MKNK1-inhibitory activity at high ATP of compounds of the present invention after their preincubation with MKNK1 was quantified employing the TR-FRET-based MKNK1 high ATP assay as described in the following paragraphs.
A recombinant fusion protein of Glutathione-S-Transferase (GST, N-terminally) and human full-length MKNK1 (amino acids 1-424 and T344D of accession number BAA 19885.1), expressed in insect cells using baculovirus expression system and purified via glutathione sepharose affinity chromatography, was purchased from Carna Biosciences (product no 02-145) and used as enzyme. As substrate for the kinase reaction the biotinylated peptide biotin-Ahx-IKKRKLTRRKSLKG (C-terminus in amide form) was used, which can be purchased e.g. from the company Biosyntan (Berlin-Buch, Germany).
For the assay 50 nL of a 100fold concentrated solution of the test compound in DMSO was pipetted into a black low volume 384well microtiter plate (Greiner Bio-One, Frickenhausen, Germany), 2 μL of a solution of MKNK1 in aqueous assay buffer [50 mM HEPES pH 7.5, 5 mM MgCl2, 1.0 mM dithiothreitol, 0.005% (v/v) Nonidet-P40 (Sigma)] was added and the mixture was incubated for 15 min at 22° C. to allow pre-binding of the test compounds to the enzyme before the start of the kinase reaction. Then the kinase reaction was started by the addition of 3 μL of a solution of adenosine-tri-phosphate (ATP, 3.3 mM=>final conc. in the 5 μL assay volume is 2 mM) and substrate (0.1 μM=>final conc. in the 5 μL assay volume is 0.06 μM) in assay buffer and the resulting mixture was incubated for a reaction time of 30 min at 22° C. The concentration of MKNK1 was adjusted depending of the activity of the enzyme lot and was chosen appropriate to have the assay in the linear range, typical concentrations were in the range of 0.003 μg/mL. The reaction was stopped by the addition of 5 μL of a solution of TR-FRET detection reagents (5 nM streptavidine-XL665 [Cisbio Bioassays, Codolet, France] and 1 nM anti-ribosomal protein […] (pSer236)-antibody from Invitrogen [#44921G] and 1 nM LANCE EU-W1024 labeled ProteinG [Perkin-Elmer, product no. AD0071]) in an aqueous EDTA-solution (100 mM EDTA, 0.1% (w/v) bovine serum albumin in 50 mM HEPES pH 7.5).
The resulting mixture was incubated for 1 h at 22° C. to allow the formation of complex between the phosphorylated biotinylated peptide and the detection reagents. Subsequently the amount of phosphorylated substrate was evaluated by measurement of the resonance energy transfer from the Eu-chelate to the streptavidine-XL. Therefore, the fluorescence emissions at 620 nm and 665 nm after excitation at 350 nm were measured in a TR-FRET reader, e.g. a Rubystar (BMG Labtechnologies, Offenburg, Germany) or a Viewlux (Perkin-Elmer). The ratio of the emissions at 665 nm and at […] was taken as the measure for the amount of phosphorylated substrate. The data were normalised (enzyme reaction without inhibitor=0% inhibition, all other assay components but no enzyme=100% inhibition).

T1 sequence (Q9BUB5 1-424 isoform Q9BUB5-2 T344D): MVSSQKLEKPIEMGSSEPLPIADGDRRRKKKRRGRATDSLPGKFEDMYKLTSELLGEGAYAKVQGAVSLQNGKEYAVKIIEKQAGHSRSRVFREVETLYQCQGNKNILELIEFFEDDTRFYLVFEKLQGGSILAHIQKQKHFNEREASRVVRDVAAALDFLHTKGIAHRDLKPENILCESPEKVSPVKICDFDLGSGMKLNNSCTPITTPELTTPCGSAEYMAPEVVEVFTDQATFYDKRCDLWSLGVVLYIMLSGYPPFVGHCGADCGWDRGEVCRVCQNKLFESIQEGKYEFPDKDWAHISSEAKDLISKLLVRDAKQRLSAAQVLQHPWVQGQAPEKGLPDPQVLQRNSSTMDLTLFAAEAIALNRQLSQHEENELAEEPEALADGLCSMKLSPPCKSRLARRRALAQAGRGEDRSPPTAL

SMILES	IC50 [nM]
COc1ccc(C(F)(F)F)cc1Nc1ncnc2[nH]c3c(c12)CC(C(=O)NC(C)C)CC3 (racemic) [Example 213, (RS)-4-{[2-Methoxy-5-(trifluoromethyl)phenyl]amino}-N-(propan-2-yl)-6,7,8,9-tetrahydro-5H-pyrimido[4,5-b]indole-6-carboxamide]	103
COc1ccc(C(F)(F)F)cc1Nc1ncnc2[nH]c3c(c12)CCCC3 [Example 119]	≥ 20000
CC(C)Oc1cc(F)ccc1Nc1ncnc2[nH]c3c(c12)CC(F)(F)CC3 [Example 9, 6,6-Difluoro-N-(4-fluoro-2-isopropoxyphenyl)-6,7,8,9-tetrahydro-5H-pyrimido[4,5-b]indol-4-amine]	85
CS(=O)(=O)CCCNC(=O)C1CCc2[nH]c3ncnc(Oc4ccc5[nH]ncc5c4)c3c2C1 (racemic) [Example 56, (RS)-4-(1H-Indazol-5-yloxy)-N-[3-(methylsulfonyl)propyl]-6,7,8,9-tetrahydro-5H-pyrimido[4,5-b]indole-6-carboxamide]	226
COc1cc2[nH]c(=O)sc2cc1Nc1ncnc2[nH]c3c(c12)CC(F)(F)CC3 [Example 238, 6-[(6,6-Difluoro-6,7,8,9-tetrahydro-5H-pyrimido[4,5-b]indol-4-yl)amino]-5-methoxy-1,3-benzothiazol-2(3H)-one]	10
CC(C)Oc1cc(F)ccc1Nc1ncnc2[nH]c3c(c12)CC(C(=O)O)CC3 (racemic) [Example 183, (RS)-4-{[4-Fluoro-2-(propan-2-yloxy)phenyl]amino}-6,7,8,9-tetrahydro-5H-pyrimido[4,5-b]indole-6-carboxylic acid]	406
CC(C)Oc1cc(F)ccc1Nc1ncnc2[nH]c3c(c12)CS(=O)(=O)CC3 [Example 84, N-(4-Fluoro-2-isopropoxyphenyl)-5,7,8,9-tetrahydrothiopyrano[3′,4′:4,5]pyrrolo[2,3-d]pyrimidin-4-amine 6,6-dioxide]	82
CS(=O)(=O)CCCNC(=O)C1CCc2[nH]c3ncnc(Nc4cc5cn[nH]c5cc4F)c3c2C1 (racemic) [Example 61, (RS)-4-[(6-Fluoro-1H-indazol-5-yl)amino]-N-[3-(methylsulfonyl)propyl]-6,7,8,9-tetrahydro-5H-pyrimido[4,5-b]indole-6-carboxamide]	17
CCCOc1ccc(F)cc1Nc1ncnc2[nH]c3c(c12)CC(C(=O)NCCCS(C)(=O)=O)CC3 (racemic) [Example 160, (RS)-4-[(5-Fluoro-2-propoxyphenyl)amino]-N-[3-(methylsulfonyl)propyl]-6,7,8,9-tetrahydro-5H-pyrimido[4,5-b]indole-6-carboxamide]	37
CCOC(=O)C1CCc2[nH]c3ncnc(Nc4ccc(F)cc4OCCO)c3c2C1 (racemic) [Example 176, (RS)-Ethyl 4-{[4-fluoro-2-(2-hydroxyethoxy)phenyl]amino}-6,7,8,9-tetrahydro-5H-pyrimido[4,5-b]indole-6-carboxylate]	174
Cn1c2c(c3c(Nc4ccc5[nH]ncc5c4)ncnc31)CC(C(=O)NCCCS(C)(=O)=O)CC2 (racemic) [Example 26, (RS)-4-(1H-Indazol-5-ylamino)-9-methyl-N-[3-(methylsulfonyl)propyl]-6,7,8,9-tetrahydro-5H-pyrimido[4,5-b]indole-6-carboxamide]	1740
c1ccc(OC2CCCC2)c(Nc2ncnc3[nH]c4c(c23)CCCC4)c1 [Example 116]	≥ 20000
COc1ccc(Cl)cc1Nc1ncnc2[nH]c3c(c12)CC(C(=O)O)CC3 (racemic) [Example 235, (RS)-4-[(5-Chloro-2-methoxyphenyl)amino]-6,7,8,9-tetrahydro-5H-pyrimido[4,5-b]indole-6-carboxylic acid]	159
CS(=O)(=O)CCCNC(=O)C1CCc2[nH]c3ncnc(Nc4ccc(F)c(OC(F)(F)F)c4)c3c2C1 (racemic) [Example 43, (RS)-4-{[4-Fluoro-3-(trifluoromethoxy)phenyl]amino}-N-[3-(methylsulfonyl)propyl]-6,7,8,9-tetrahydro-5H-pyrimido[4,5-b]indole-6-carboxamide]	782
COCC1(OC)CCc2[nH]c3ncnc(Nc4ccc5[nH]c(=O)sc5c4)c3c2C1 (racemic) [Example 138]	358
O=C(O)CNC(=O)C1CCc2[nH]c3ncnc(Nc4ccc(F)cc4OCCO)c3c2C1 (racemic) [Example 187, (RS)—N-[(4-{[4-Fluoro-2-(2-hydroxyethoxy)phenyl]amino}-6,7,8,9-tetrahydro-5H-pyrimido[4,5-b]indol-6-yl)carbonyl]glycine]	123
CS(=O)(=O)CCCNC(=O)C1CCc2[nH]c3ncnc(Nc4cccc(-n5cnnn5)c4)c3c2C1 (racemic) [Example 47, (RS)—N-[3-(Methylsulfonyl)propyl]-4-{[3-(1H-tetrazol-1-yl)phenyl]amino}-6,7,8,9-tetrahydro-5H-pyrimido[4,5-b]indole-6-carboxamide]	1310
Cc1ccc(Nc2ncnc3[nH]c4c(c23)CC(C(=O)NCCCS(C)(=O)=O)CC4)c(OC(F)F)c1 (racemic) [Example 156, (RS)-4-{[2-(Difluoromethoxy)-4-methylphenyl]amino}-N-[3-(methylsulfonyl)propyl]-6,7,8,9-tetrahydro-5H-pyrimido[4,5-b]indole-6-carboxamide]	≥ 20000

Continued, values first:

IC50 [nM]	SMILES
904	CS(=O)(=O)CCCNC(=O)C1CCc2[nH]c3ncnc(Nc4ccc5c(c4)CCS5(=O)=O)c3c2C1 (racemic) [Example 52, (RS)-4-[(1,1-Dioxido-2,3-dihydro-1-benzothiophen-5-yl)amino]-N-[3-(methylsulfonyl)propyl]-6,7,8,9-tetrahydro-5H-pyrimido[4,5-b]indole-6-carboxamide]
450	O=C(NCc1ccccc1)C1CCc2[nH]c3ncnc(N4CCc5ccccc54)c3c2C1 (racemic) [Example 209, (RS)—N-Benzyl-4-(2,3-dihydro-1H-indol-1-yl)-6,7,8,9-tetrahydro-5H-pyrimido[4,5-b]indole-6-carboxamide]
335	CC(=O)c1ccc(Nc2ncnc3[nH]c4c(c23)CC(C(=O)NCCCS(C)(=O)=O)CC4)cc1 (racemic) [Example 53, (RS)-4-[(4-Acetylphenyl)amino]-N-[3-(methylsulfonyl)propyl]-6,7,8,9-tetrahydro-5H-pyrimido[4,5-b]indole-6-carboxamide]
3410	CN1CCN(C(=O)C2CCc3[nH]c4ncnc(N5CCc6ccccc65)c4c3C2)CC1 (racemic) [Example 211, (RS)-[4-(2,3-Dihydro-1H-indol-1-yl)-6,7,8,9-tetrahydro-5H-pyrimido[4,5-b]indol-6-yl](4-methylpiperazin-1-yl)methanone]
193	CC(C)COc1ccccc1Nc1ncnc2[nH]c3c(c12)CC(C(=O)NCCCS(C)(=O)=O)CC3 (racemic) [Example 153, (RS)-4-{[2-(2-Methylpropoxy)phenyl]amino}-N-[3-(methylsulfonyl)propyl]-6,7,8,9-tetrahydro-5H-pyrimido[4,5-b]indole-6-carboxamide]
77	O=C(NCc1ccccc1)C1CCc2[nH]c3ncnc(Nc4ccccc4N4CCOCC4)c3c2C1 (racemic) [Example 206, (RS)—N-Benzyl-4-{[2-(morpholin-4-yl)phenyl]amino}-6,7,8,9-tetrahydro-5H-pyrimido[4,5-b]indole-6-carboxamide]
803	CS(=O)(=O)CCCNC(=O)C1CCc2[nH]c3ncnc(N4CCc5ccccc54)c3c2C1 (racemic) [Example 168, (RS)-4-(2,3-Dihydro-1H-indol-1-yl)-N-[3-(methylsulfonyl)propyl]-6,7,8,9-tetrahydro-5H-pyrimido[4,5-b]indole-6-carboxamide]
≥ 20000	COc1ccc(F)cc1Nc1ncnc2[nH]c3c(c12)CC(C(=O)Nc1ccccc1)CC3 (racemic) [Example 199, (RS)-4-[(5-Fluoro-2-methoxyphenyl)amino]-N-phenyl-6,7,8,9-tetrahydro-5H-pyrimido[4,5-b]indole-6-carboxamide]
